Patent US12589103B2, “Antimicrobial and antiviral effects of C2-C7 alkyl boronic acids” (CORNELL UNIVERSITY, priority 2019, dated 2026)
Entries after “also recorded” stand apart in the source; their conditions may differ.

What was measured:
[1] = test system: diarrheagenic E. coli and APEC; test: Growth of diarrheagenic and APEC E. coli in LB media; assay type: cell-based; conditions: 30 mM
Procedure: (§1) The control sample contained 40 mM NaCl.
Diarrheagenic E. coli pathogroups differ by their preferential host colonization sites, virulence mechanisms, and clinical symptoms.

[2] = test system: Salmonella; test: Growth of five Salmonella strains; assay type: cell-based
Procedure: as §1

[3] = test system: AIEC and cancer associated E. coli; test: Soft agar motility assay, E. coli; assay type: cell-based; conditions: 10 h, AIEC NC101, 541-1, cancer associated E. coli
Procedure: The ability of ABA C1-3 and BA to impact the motility of E. coli and Salmonella was evaluated using sloppy agar treated with and without BA and C1-C3 alkyl boronic acids. Motility is strongly linked to the virulence phenotype of these bacterial strains. E. coli was grown overnight at 37° C. in LB broth. Soft agar plates (1% tryptone, 0.5% NaCl, 0.25% agar) were prepared the day before the assay was carried out. Sterile NaCl (control), boric or boronic acid stock solution was added into the agar right before pouring the plates. The overnight cultures of E. coli were transferred (3 μl) on to the center of each plate, followed by incubation of the plates at 37° C. for 10 h. E. coli motility was quantified by measuring the diameter of the circular swarming area formed by the growing motile bacteria.

[4] = test system: nF-κB; test: E. coli induced nF-κB activation in HEK-Blue KD-TLR5 cells (SEAP reporter); assay type: cell-based; conditions: m.o.i 20, SEAP at 24 h
Procedure: HEK-Blue KD-TLR5 cells were used to detect the promotor activation of nF-κB by E. coli infection with or without boric or boronic acid treatment. nF-κB is the prototypical transcription factor for pro-inflammatory cytokines in epithelium. Briefly, cells were seeded in 96-well plates at a density of 5×10^4 cells per well. E. coli was diluted into fresh cell medium containing either NaCl (Control), boric or boronic acid at an m.o.i of 200 as 10× inocula, followed by addition of this inoculum (10 μl) into each well containing 100 μl of medium for a final m.o.i of 20. At 3 h post infection, the cell medium was carefully removed from each well, and replaced with 100 μl of fresh medium containing gentamycin (200 μg mL^−1). At 24 h post infection, the spent medium was collected, and centrifuged at 12,000 r.p.m. for 5 min to remove any particulate matter. QUANTI-Blue Kit (InvivoGen, San Diego, CA, USA) was used to detect the reporter protein SEAP (secreted alkaline phosphatase) following the manufacturer's instructions.

[5] = test system: AIEC 541-1 and LF82; test: Adhesion and invasion of Caco-2 cells by AIEC; assay type: cell-based, E. coli; conditions: 30 mM, m.o.i 10, 3 h
Procedure: E. coli was cultured overnight in LB at 37° C. with shaking. Bacterial pellets were re-suspended in PBS before dilution in cell culture media±30 mM boronic acid or alkyl boronic acid to an m.o.i (multiplicity of infection) of 10. Caco-2 cells were infected with the diluted E. coli for 3 h at 37° C. before washing with PBS, then lysed with 1% Triton X-100. Serial dilutions of the lysates were made in PBS and plated on LB agar. The total number of colonies recovered was used to calculate the number of adherent bacteria. For invasion assays, cells were treated with gentamicin (100 μg mL−1) for one hour after initial infection and 3× wash with PBS to kill extracellular bacteria. Cells were then washed 3× after gentamicin treatment, lysed and plated as described above.

[6] = test system: Salmonella; test: Adhesion and invasion of colonic epithelial cells by Salmonella; assay type: cell-based
[7] = test system: AIEC in murine macrophage J774A.1 cells; test: Uptake and survival of AIEC in J774A.1 macrophages; assay type: cell-based, E. coli
[8] = test system: AIEC E. coli (541-1, LF82) virulence genes; test: Virulence gene expression of AIEC (qRT-PCR); assay type: cell-based; conditions: 30 mM
Procedure: Total RNA was extracted using the Qiagen RNAProtect-RNeasy Kit per manufacturer's protocol. Total RNA was treated with TURBO DNA-Free Kit (Ambion), followed by a two-step qRT-PCR analysis, using Qiagen's QuantiTect Reverse Transcription Kit and QuantiNova SYBR Green PCR Kit. Each qPCR reaction contained 1 μl of cDNA, 0.7 μl of each forward and reverse primers (10 μM), 5 μL of 2× SYBR Green Master Mix, 1 μl of QN ROX Reference Dye and […] of nuclease-free water to make the total volume of 10 μl. The reaction was run with ABI7000 (Applied Biosystems). […] The relative change of a targeted gene expression was calculated by using the equation RQ=2^−ΔΔCT.

[9] = 8-week toxicity study in mice, drinking water; assay type: in vivo, C57/B18 mice
Procedure: The toxicity of boric and ethylboronic acids were examined with C57/B18 mice. At concentrations of 0, 10, 20, and 40 mM, the two chemicals were given to each group (6 mice) in drinking water. The body weight of each mouse was recorded weekly for 8 weeks, and fecal samples were also collected weekly for 16s sequencing. All animals were sacrificed at the end of 8th week. The length of whole intestine and ileum of each mouse was measured, and sections of the intestine (i. e. small intestine, ileum, cecum, and large intestine) were taken for histopathological and FISH analysis. Fecal samples were used for 16s and lipocalin analysis.
For lipocalin analysis, mouse fecal pellets were collected and frozen at −80 C during toxicity study. To determine lipocalin activity fecal pellets were diluted in microfuge tubes 1/30 with 0.1% Tween20/PBS and vortexed for 20 min at maximum speed. Undissolved particles were removed by centrifuging at 12,000 rpm for 10 min at 4 C. Supernatant was removed and placed into a clean microfuge tube. Lipocalin activity was determined using Mouse Lipocalin-2/NGAL DuoSet ELISA Kit (R&D Systems, DY1857) per manufacturer's instructions.

[10] = DSS induced colitis in mice; assay type: in vivo, C57BL mice; conditions: 40 mM in drinking water after DSS (3%)
Procedure: On the basis of favorable in vivo toxicity tests, the ability of BA and EBA to reduce the severity of inflammation in murine models of microbially driven IBD was tested. The effect of BA and EBA (40 mM) on intestinal inflammation was evaluated in mice with dextran sodium sulfate (“DSS”) induced colitis. The DSS model has a complex etiopathogenesis that involves host-immune and inflammatory responses and the enteric microbiome BA To test their protecting ability to the gastrointestinal tract, boric and ethylboronic acid were given to C57BL mice at 40 mM concentration respectively in drinking water after DSS (3%) treatment. Body weight and fecal samples were taken before and after 6-day treatment. At the 6th day, all mice were euthanized for gross necropsy and histopathology. Intestinal sections were collected and embedded for pathological and FISH analysis. Fecal samples were used for 16s and lipocalin analysis.

[11] = test system: typhoid toxin B subunit (CdtB); assay type: cell-based, Salmonella typhi
[12] = test system: Feline Infectious Peritonitis Virus (FIPV) Black (TN-406); test: FIPV replication and syncytium formation, immunofluorescence; assay type: cell-based, Feline Coronavirus type I; conditions: 10, 20, 30, 40 mM; Feline Lung cells, 18 h post-infection
[13] = test system: probiotic Lactobacillus spp; test: Growth of probiotic Lactobacillus strains; conditions: three Lactobacillus strains
[14] = test system: adherent invasive E. coli (AIEC, 541-1); test: Growth in M9 media with ethanolamine or NH4Cl; conditions: BA, EBA 10-40 mM, PBA 15 mM, MBA 30 mM

With `CCB(O)O` [EBA, ethyl boronic acid] the “inhibition of growth of diarrheagenic and APEC E. coli” value [1] was “have activity versus the diarrheagenic E. coli and APEC that varies by pathogroup; also recorded: more effective in inhibiting bacterial growth than BA overall”, the “inhibition of growth of Salmonella serovars” value [2] was “inhibit the growth of multiple serovars of Salmonella more effectively than BA” and the “motility of E. coli” value [3] was “highly effective at blocking motility of AIEC and cancer associated E. coli”. For the same molecule, the “induction of nF-κB by E. coli” value [4] was “reduced the induction of nF-κB by E. coli”, the “adhesion and invasion of Caco-2 by AIEC” value [5] was “suppress adhesion and invasion of Caco-2 by AIEC 541-1 and LF82” and the “suppression of adhesion and invasion of Salmonella” value [6] was 40-50%. The “survival of AIEC in J774A.1 macrophages” value ([7]; 30 mM during infection, 24 h post infection) was “inhibited the survival”, the “uptake of AIEC by J774A.1 macrophages” value ([7]; 30 mM, 1 h) was “inhibited the uptake” and the “pduC expression in 541-1” value [8] was “Upregulation”. The “virulence gene expression of AIEC” value ([8]; mid log phase, compared with BA) was “inhibited virulence gene expression”, the “adverse effects in mice” value ([9]; 40 mM) was “safely administered to mice without adverse effects” and the “fecal 16S profiles” value ([9]; mouse, in vivo) was “not significantly different from control mice”. The “colon length in DSS colitis versus control mice” value [10] was “not significantly different”, the “fecal lipocalin levels in DSS colitis versus control mice” value [10] was “not significantly different” and the “intestinal bleeding in DSS colitis” value [10] was “absent”. For the same molecule, the “typhoid toxin (CdtB) production” value [11] was “inhibition of toxin production (CdtB)”, the “replication and syncytium formation of FIPV” value [12] was “inhibited replication and syncytium formation of FIPV in infected cells” and the “growth of probiotic Lactobacillus spp” value [13] was “do not suppress growth”. The “inhibition of growth of AIEC 541-1” value [14] was “much more effective”.
